Laboratory results published in BigSolDB 2.1.

CC(=O)Oc1ccccc1C(=O)Nc1ncc([N+](=O)[O-])s1
solubility (mole fraction) (in DMF, 278.15 K): 0.0665
solubility (mole fraction) (in DMF, 283.15 K): 0.0716
solubility (mole fraction) (in DMF, 288.15 K): 0.077
solubility (mole fraction) (in DMF, 293.15 K): 0.0825
solubility (mole fraction) (in DMF, 298.15 K): 0.0882
solubility (mole fraction) (in DMF, 303.15 K): 0.0934
solubility (mole fraction) (in DMF, 308.15 K): 0.0992
solubility (mole fraction) (in DMF, 313.15 K): 0.106
solubility (mole fraction) (in DMF, 318.15 K): 0.112
solubility (mole fraction) (in DMF, 323.15 K): 0.118
solubility (mole fraction) (in NMP, 278.15 K): 0.0891
solubility (mole fraction) (in NMP, 283.15 K): 0.093
solubility (mole fraction) (in NMP, 288.15 K): 0.0964
solubility (mole fraction) (in NMP, 293.15 K): 0.1
solubility (mole fraction) (in NMP, 298.15 K): 0.104
solubility (mole fraction) (in NMP, 303.15 K): 0.107
solubility (mole fraction) (in NMP, 308.15 K): 0.112
solubility (mole fraction) (in NMP, 313.15 K): 0.116
solubility (mole fraction) (in NMP, 318.15 K): 0.119
solubility (mole fraction) (in NMP, 323.15 K): 0.123
solubility (mole fraction) (in isopropanol, 278.15 K): 0.000205
solubility (mole fraction) (in isopropanol, 283.15 K): 0.000239
solubility (mole fraction) (in isopropanol, 288.15 K): 0.000277
solubility (mole fraction) (in isopropanol, 293.15 K): 0.000319
solubility (mole fraction) (in isopropanol, 298.15 K): 0.000367
solubility (mole fraction) (in isopropanol, 303.15 K): 0.000419
solubility (mole fraction) (in isopropanol, 308.15 K): 0.000476
solubility (mole fraction) (in isopropanol, 313.15 K): 0.000542
solubility (mole fraction) (in isopropanol, 318.15 K): 0.000607
solubility (mole fraction) (in isopropanol, 323.15 K): 0.000684
solubility (mole fraction) (in water, 278.15 K): 1.26e-07
solubility (mole fraction) (in water, 283.15 K): 1.66e-07
solubility (mole fraction) (in water, 288.15 K): 2.23e-07
solubility (mole fraction) (in water, 293.15 K): 2.93e-07
solubility (mole fraction) (in water, 298.15 K): 3.81e-07
solubility (mole fraction) (in water, 303.15 K): 4.98e-07
solubility (mole fraction) (in water, 308.15 K): 6.34e-07
solubility (mole fraction) (in water, 313.15 K): 8.11e-07
solubility (mole fraction) (in water, 318.15 K): 9.9e-07
solubility (mole fraction) (in water, 323.15 K): 1.24e-06
